Assay results published in patent publication US20260257992A1, “AGONISTS OF SMALL HETERODIMER PARTNER FOR CANCER THERAPY” (THE BOARD OF TRUSTEES OF THE UNIVERSITY OF ILLINOIS, priority 2023, published 2026).

Legend:
4T1 metastatic lesions = test: Outgrowth of established 4T1 lung metastatic lesions (intravenous graft); assay type: in vivo, mouse; details: for Outgrowth of 4T1 metastatic lesions, combined with αPDL1: compound combined with αPDL1; for Outgrowth of established 4T1 metastatic lesions, single agent: lesions established 3 d before treatment
Excerpt: (§1) FIG. 3A-3F. DSHN, a tool small molecule agonist of NR0B2 reduces macrophage/dendritic cell induced Treg expansion and tumor growth in murine models. […] (B) Dendritic cells (left-CD11B^+; CD11C^+) and CD4^+ T cells (right) were isolated from MMTV-PyMT tumors by FACS, and treated with vehicle or DSHN for 3d. The resulting frequency of Treg (CD4^+; CD25^+; FoxP3^+) was quantified by flow cytometry (right graph), (N=3-5/group, t test). […] The percentage of divided CD8+ T cells in the second round was quantified. (D) DSHN increases efficacy of αPDL1 therapy on orthotopic E0771 tumors. An optimal number of E0771 cells were grafted into FoxP3-EGFP mice and allowed to grow until tumors reached 100 mm^3. Mice were euthanized on day 19 (waterfall plot, Fisher's exact test). (E) DSHN increases efficacy of αPDL1 therapy on orthotopic 4T1 tumors. 4T1 cells were orthotopically grafted into mice and allowed to establish for 5d prior to treatment start. Mice were euthanized on day 16 (waterfall plot, Fisher's exact test). (F) DSHN reduces metastatic outgrowth of 4T1 tumors and enhances efficacy of αPDL1 compared to placebo (p) (2-way ANOVA followed by Šidák's multiple comparison test for day 16). 4T1 cells were grafted intravenously, and lung metastatic lesions allowed to establish for 3d before treatment commenced. At the end of the study, lungs were removed and imaged ex vivo, quantified data indicated (N=10, 1-way ANOVA followed by Newman-Keuls multiple comparison test). Representative luciferase images shown to the right. * or different letters denote P<0.05 using indicated statistical test.
FIG. 7A-7I. DSHN-OMe reduces tumor and metastatic growth in murine models, in a myeloid cell-NR0B2 dependent manner. (A) E0771 cells were grafted into control mice (NR0B2^+/+; LysMCre^+) or mice where NR0B2 was knocked out in myeloid immune cells (NR0B2^fl/fl; LysMCre^+). 8 days post-graft, daily treatment with placebo or DSHN-OMe was initiated and subsequent tumor growth followed through time. Different letters denote statistical difference on the final measurement (day 21, 2-Way ANOVA followed by Šidák's post-hoc, N=5-8). (B) Waterfall plot illustration of data in (A) showing tumor volume at final day of measurement. Asterisk indicates significant difference (Chi-squared test, P<0.05). (C) Lewis Lung cells were grafted into control mice (NR0B2^+/+; LysMCre^+) or mice where NR0B2 was knocked out in myeloid immune cells (NR0B2^fl/fl; LysMCre^+). 10 days post-graft, daily treatment with placebo or DSHN-OMe was initiated and subsequent tumor growth followed through time. […] (G) EMT6 metastatic lungs were assessed for Ki67 mRNA and (H) FOXP3 mRNA. (I) EMT6 metastatic lungs were assessed for CD8+ cytotoxic T cells (CD8+). […]

[1] = test system: inflammasome associated genes; test: Inflammasome associated gene expression in BMDMs (LPS, nigericin); assay type: cell-based, mouse
Protocol: FIG. 8A-8D. DSHN-OMe attenuates induction of inflammasome associated genes when BMDMs are treated with both LPS and nigericin, not LPS alone. * indicates P<0.05 when comparing to DMSO.
Inflammasome activation, RNA extraction, quantitative real PCR. When comparing inflammasome responses, BMDMs were treated with 500 ng/mL LPS for 4 h 37° C. in complete RPMI 1640. After 4 hr priming, 15 μM Nigericin was added for 45 mins at 37° C. Next, media was removed, washed with PBS and inflammasome activation was assessed using qPCR or inflammasome caspase-1 activity was measured using Caspase-Glo® 1 inflammasome assay kit (G9951; Promega) according to manufacturer's instructions.

E0771 tumors = test: Orthotopic syngeneic E0771 mammary tumor growth; assay type: in vivo, mouse
Excerpt: as §1
FIG. 7A-7I. DSHN-OMe reduces tumor and metastatic growth in murine models, in a myeloid cell-NR0B2 dependent manner. (A) E0771 cells were grafted into control mice (NR0B2^+/+; LysMCre^+) or mice where NR0B2 was knocked out in myeloid immune cells (NR0B2^fl/fl; LysMCre^+). […] (G) EMT6 metastatic lungs were assessed for Ki67 mRNA and (H) FOXP3 mRNA. (I) EMT6 metastatic lungs were assessed for CD8+ cytotoxic T cells (CD8+). […]

CCN(CC)S(=O)(=O)c1cccc2cc(C(=O)OC)c(O)cc12 [DSHN-OMe, Methyl 5-(N,N-diethylsulfamoyl)-3-hydroxy-2-naphthoate]
Outgrowth of 4T1 metastatic lesions, combined with αPDL1 (4T1 metastatic lesions): did not significantly influence the effects of DSHN-OMe | Outgrowth of established 4T1 metastatic lesions, single agent (4T1 metastatic lesions): significantly reduced the outgrowth of established 4T1 metastatic lesions | Expression of inflammasome associated genes, priming and activation signal [1]: able to blunt the expression of inflammasome associated genes | E0771 tumor growth, myeloid NR0B2 knockout (E0771 tumors; NR0B2fl/fl, LysMCre+ mice): no significant impact | E0771 tumor growth (E0771 tumors; control NR0B2+/+, LysMCre+ mice, daily treatment from day 8): significantly reduced E0771 tumor growth

CCN(CC)S(=O)(=O)c1cccc2cc(C(=O)O)c(O)cc12 [DSHN, reference compound]
Outgrowth of 4T1 metastatic lesions, combined with αPDL1 (4T1 metastatic lesions): reduced outgrowth even further than DSHN alone | Outgrowth of established 4T1 metastatic lesions, single agent (4T1 metastatic lesions): slowed the growth of metastatic lesions | Expression of inflammasome associated genes, priming and activation signal [1]: able to blunt the expression of inflammasome associated genes | Growth of established E0771 tumors, combined with αPDL1 (E0771 tumors; DSHN combined with αPDL1): decreased growth
